Test results taken from patent US3994882A, “Nitrofuran derivatives, process for the preparation thereof and compositions containing same as active ingredient” (Kabushiki Kaisha Ueno Seiyaku Oyo Kenkyujo, priority 1974, dated 1976).
≈ marks a conversion by molar mass, not a printed value. Read-outs that look alike come from different tables or passages of the source.

Assays:
Bacillus Subtilis PCI219 = assay: Minimum growth inhibiting concentration (Table 1); type: cell-based; conditions: TSBI, pH 7.2, 37° C., 48 hours
Description: (§1) For information, the minimum growth inhibiting concentration is a value
(§2) concerning microorganisms cultivated in TSBI the pH of which was adjusted
(§3) to 7.2, each bacteria being incubated at 37° C. for 48 hours.

[1] = tested on: Diplococcus pneumoniae DP-1; assay: Minimum growth inhibiting concentration (Table 1); type: cell-based; conditions: Streptococcus pneumoniae, DP1, TSBI, pH 7.2, 37° C., 48 hours
Description: as §1, §2, §3

Escherichia coli O-55 = assay: Minimum growth inhibiting concentration (Table 1); type: cell-based; conditions: O55, TSBI, pH 7.2, 37° C., 48 hours
Description: as §1, §2, §3

[2] = tested on: Klebsiella pneumoniae ST-101; assay: Minimum growth inhibiting concentration (Table 1); type: cell-based; conditions: ST101, TSBI, pH 7.2, 37° C., 48 hours
Description: as §1, §2, §3

Proteus vulgaris HX-19 = assay: Minimum growth inhibiting concentration (Table 1); type: cell-based; conditions: HX19, TSBI, pH 7.2, 37° C., 48 hours
Description: as §1, §2, §3

[3] = tested on: Pseudomonas aeruguinosa 347; assay: Minimum growth inhibiting concentration (Table 1); type: cell-based; conditions: TSBI, pH 7.2, 37° C., 48 hours
Description: as §1, §2, §3

[4] = tested on: Salmonella enteritidis 1891; assay: Minimum growth inhibiting concentration (Table 1); type: cell-based; conditions: Salmonella enterica, TSBI, pH 7.2, 37° C., 48 hours
Description: as §1, §2, §3

[5] = tested on: Salmonella pullorum chuyu 114; assay: Minimum growth inhibiting concentration (Table 1); type: cell-based; conditions: Salmonella enterica, TSBI, pH 7.2, 37° C., 48 hours
Description: as §1, §2, §3

[6] = tested on: Staphylococcus aureus 209P; assay: Minimum growth inhibiting concentration (Table 1); type: cell-based; conditions: TSBI, pH 7.2, 37° C., 48 hours
Description: as §1, §2, §3

[7] = tested on: Streptococcus hemolyticus A 089; assay: Minimum growth inhibiting concentration (Table 1); type: cell-based; conditions: Streptococcus pyogenes, A089, TSBI, pH 7.2, 37° C., 48 hours
Description: as §1, §2, §3

[8] = tested on: Bordetella bronchiseptica; assay: Minimum growth inhibiting concentration, microorganisms that infect domestic animals (Table 2); type: cell-based; conditions: 4 strains, Heart infusion Agar, 48 hours
Description: (§4) The minimum growth inhibiting concentrations were measured under identical conditions as in the case of Table 1, except that culture media indicated above were used and, in the case of that asterisked, the culture was carried out for 5 days, while the others were cultivated for 48 hours.

[9] = tested on: Erysiperothrix rhusiopatiae Agata; assay: as above; type: cell-based; conditions: TSB-Agar 10% rabbit blood added, 48 hours
Description: as §4

Escherichia coli = assay: as above; type: cell-based; conditions: 36 strains, TSB-Agar, 48 hours
Description: as §4

Hemophilus galinalum = assay: as above; type: cell-based; conditions: 2 strains, TSB-Agar 10% rabbit blood added, 48 hours
Description: as §4

Mycolasma galli-septicum = assay: as above; type: cell-based; conditions: 120 h, 6 strains, Hofstad, 5 days
Description: as §4

[10] = tested on: Pasteurella multocida Kobe-5; assay: as above; type: cell-based; conditions: KOBE5, TSB-Agar 10% rabbit blood added, 48 hours
Description: as §4

Salmonella purollum = assay: as above; type: cell-based; conditions: 42 strains, TSB-Agar, 48 hours
Description: as §4

Staphylococcus aureus = assay: as above; type: cell-based; conditions: 15 strains, TSB-agar, 48 hours
Description: as §4

[11] = Acute toxicity in mice (Table 4); conditions: mouse, in vivo, po
Description: Next, in Table 4 are shown the curative actions (ED50 mg/Kg body wt.) and acute toxicities (LD50 mg/kg body wt.) of the typical nitrofuran derivatives of the present invention when used with infected mice.

[12] = tested on: Erysiperothrix rhusiopatiae Agata; assay: Cure of mice infected with Erysiperothrix rhusiopatiae (Table 5); type: in vivo; conditions: Mus musculus, 168 h, observed 7 days, read-out: ED50 when used with Erysiperothrix rhusiopatiae
Description: Mice of body weight about 20 grams were used, and 0.2 ml of a culture liquid obtained by cultivating Erysiperothrix rhusiopatiae Agata for 24 hours at 37° C. in a 10% calf serum TSB added culture medium (amount of inoculated germs 4.0 × 10^7) was injected abdominally.

[13] = tested on: Salmonella pullorum NIAH 5159; assay: Effectiveness in preventing infection by Salmonella pullorum in chicks (Table 6); type: in vivo; conditions: 7 days, chicks with germs isolated / chicks tested
Description: A culture liquid obtained by cultivating Salmonella pullorum NIAH 5159 in a YCCB culture medium for 20 hours at 37° C. was injected into the cloaca of 2-day-old chicks at the rate of 0.2 ml per chick. Nitrofuran derivatives in total amounts indicated below were then mixed with the feed, and the so mixed feed was fed to the chicks for 7 days. The chicks were then sacrificed, and the liver and/or spleen were homogenized, following which the product was cultivated for 48 hours at 37° C. in a YCCB culture medium in customary manner. The expression, "rate of germ isolation" used in the table has the following meaning. For instance, the value 4/10 means the germs were isolated from four out of the ten chicks submitted to the test.

[14] = tested on: Staphlococcus aureus Kawanabe II; assay: Curative effects on Staphlomycosis of fowl (Table 7); type: in vivo; conditions: two weeks, chicks died / chicks tested
Description: A culture liquid obtained by cultivation of Staphlococcus aureus Kawanabe II for 20 hours at 37° C. in a heart infusion culture medium was injected intravenously into 3-week-old chicks at the rate of 0.2 ml per chick. Nitrofuran derivatives mixed in amounts indicated below in the feeds were then fed these chicks for two weeks. In the table the expression, "death rate" has the following meaning. For instance, the value 3/9 denotes that three out of the nine chicks submitted to the test died.

vibroid ulcers = assay: Medicinal bath of young yellowtail with disease seeming to be vibroid ulcers; type: in vivo; conditions: of 30 fishes; 10 ppm seawater bath 10 minutes; reared further 20 days; untreated group 3 survivors
Description: In raising young yellowtail of a body length about 10-15 cm, since a disease seeming to be vibroid ulcers started to appear, 90 of the fishes were collected and divided into three groups. The first group of 30 fishes were reared as heretofore practiced with no change. On the other hand, the second and third groups of 30 fishes were placed for 10 minutes in respectively medicinal baths containing seawater solutions of 10 ppm of the compound of Example 1 ##SPC40##
and the compound of Example 9 ##SPC41##
following which the respective groups of fishes were returned to normal seawater where they were reared for a further 20 days. The number of fishes surviving in the case of the first group was three fishes, whereas in the case of the second and third groups, the numbers of fishes surviving were 26 and 25 fishes, respectively.

Compound | MIC (Bacillus Subtilis PCI219) | MIC [1] | MIC (Escherichia coli O-55) | MIC [2] | MIC (Proteus vulgaris HX-19) | MIC [3] | MIC [4] | MIC [5] | MIC [6] | MIC [7] | MIC [8] | MIC [9] | MIC (Escherichia coli) | MIC (Hemophilus galinalum) | MIC (Mycolasma galli-septicum) | MIC [10] | MIC (Salmonella purollum) | MIC (Staphylococcus aureus) | LD50 [11] | ED50 ([12]; oral administration) | further results
O=C(NCCO)c1ccc(C=Cc2ccc([N+](=O)[O-])o2)cc1 [Example 1, 2-Para-[2'-(5"-nitro-2"-furyl)-vinyl]-benzoylaminoethanol] | < 0.19 µg/mL | 0.78 µg/mL (≈ 2.58 µM) | 3.13 µg/mL (≈ 10.4 µM) | 3.13 µg/mL (≈ 10.4 µM) | 3.13 µg/mL (≈ 10.4 µM) | 12.5 µg/mL (≈ 41.4 µM) | 1.56 µg/mL (≈ 5.16 µM) | 3.13 µg/mL (≈ 10.4 µM) | 0.78 µg/mL (≈ 2.58 µM) | < 0.19 µg/mL | 25 µg/mL (≈ 82.7 µM) | 0.07 µg/mL (≈ 0.232 µM) | 0.5 to 25 µg/mL (≈ 1.65 to 82.7 µM) | 0.04 to 1.5 µg/mL (≈ 0.132 to 4.96 µM) | 0.1 µg/mL (≈ 0.331 µM) | 0.15 µg/mL (≈ 0.496 µM) | 1.6 to 12.5 µg/mL (≈ 5.29 to 41.4 µM) | 0.2 to 25 µg/mL (≈ 0.662 to 82.7 µM) | 1500 mg/kg | 21.8 mg/kg | ED50 ([12]; sc, subcutaneous injection): 50 mg/kg; Rate of germ isolation ([13]; 50 ppm in feed): 4/10; Rate of germ isolation ([13]; 100 ppm in feed): 4/10; Rate of germ isolation ([13]; 200 ppm in feed): 3/10; Rate of germ isolation ([13]; 400 ppm in feed): 2/10; Rate of germ isolation ([13]; 800 ppm in feed): 0/10; Death rate ([14]; 50 ppm in feed): 3/9; Death rate ([14]; 100 ppm in feed): 2/9; Death rate ([14]; 200 ppm in feed): 2/9; Death rate ([14]; 400 ppm in feed): 2/9; Death rate ([14]; 800 ppm in feed): 1/9; Number of fishes surviving (vibroid ulcers): 26 fishes
O=C(NCC(O)CO)c1ccc(C=Cc2ccc([N+](=O)[O-])o2)cc1 (stereo not shown) [Example 9, 3-Para-[2'-(5"-nitro-2"-furyl)-vinyl]-benzoylamino-1,2-propanediol] | < 0.19 µg/mL | < 0.19 µg/mL | 3.13 µg/mL (≈ 9.42 µM) | 6.25 µg/mL (≈ 18.8 µM) | 6.25 µg/mL (≈ 18.8 µM) | > 25 µg/mL | 1.56 µg/mL (≈ 4.69 µM) | 6.25 µg/mL (≈ 18.8 µM) | 0.78 µg/mL (≈ 2.35 µM) | < 0.19 µg/mL | 25 µg/mL (≈ 75.2 µM) | 0.15 µg/mL (≈ 0.451 µM) | 0.5 to 12.5 µg/mL (≈ 1.5 to 37.6 µM) | 0.1 to 1.5 µg/mL (≈ 0.301 to 4.51 µM) | 0.2 µg/mL (≈ 0.602 µM) | 0.08 µg/mL (≈ 0.241 µM) | 1.6 to 25 µg/mL (≈ 4.81 to 75.2 µM) | 0.2 to 25 µg/mL (≈ 0.602 to 75.2 µM) | > 2000 mg/kg | 25.5 mg/kg | ED50 ([12]; sc, subcutaneous injection): 42.1 mg/kg; Rate of germ isolation ([13]; 50 ppm in feed): 4/10; Rate of germ isolation ([13]; 100 ppm in feed): 4/10; Rate of germ isolation ([13]; 200 ppm in feed): 3/10; Rate of germ isolation ([13]; 400 ppm in feed): 2/10; Rate of germ isolation ([13]; 800 ppm in feed): 1/10; Death rate ([14]; 50 ppm in feed): 3/9; Death rate ([14]; 100 ppm in feed): 2/9; Death rate ([14]; 200 ppm in feed): 2/9; Death rate ([14]; 400 ppm in feed): 2/9; Death rate ([14]; 800 ppm in feed): 2/9; Number of fishes surviving (vibroid ulcers): 25 fishes
